Where “and” joins values, the source holds several entries; their conditions need not be identical. Equal entries are not always repeated. Residues, ends and D or L forms follow the SMILES beside them.
Assay: In vivo screening on mice
Parameters: species or system BALB/C mice
Conditions: for WBC Count: 110 mg/kg per day i.m. for 6 days, Mouse 1, 2, 3
Protocol: Nine BALB/C mice, 4 to 5 weeks of age, maintained on commercial rodent ration fed ad libidum and in general good health were each inoculated with 1.76 mg/day of cecropin SB-37 in PBS intramuscularly for 4 consecutive days. No other change was made in diet or conditions. […] At the end of the fourth day, three were sacrificed and examined. After 30 days, three were given an additional 1.76 mg of cecropin SB-37 each.
The remaining mice were all sacrificed 7 days after the last inoculation.
Following the above procedure, three BALB/C mice were given 110 mg/kg of body weight per day of cecropin SB-37 injected intramuscularly in balanced salt solution for 6 days. Ten days after the last inoculation, the mice were again injected intramuscularly with 110 mg/kg of body weight with cecropin SB-37. […] All three mice were sacrificed 7 days after the final inoculation and tissues were examined.

**Q.** Which adverse reactions (1.76 mg/day intramuscularly, 4 consecutive days, observed twice daily) does the source give for CC[C@H](C)[C@H](NC(=O)CNC(=O)[C@H](CC(N)=O)NC(=O)[C@H](CCCNC(=N)N)NC(=O)[C@@H](NC(=O)[C@H](CC(N)=O)NC(=O)[C@H](CCCNC(=N)N)NC(=O)CNC(=O)[C@H](CCSC)NC(=O)[C@H](CCCCN)NC(=O)[C@H](CCC(=O)O)NC(=O)[C@@H](NC(=O)[C@H](CCCCN)NC(=O)[C@H](CCCCN)NC(=O)[C@H](Cc1ccccc1)NC(=O)[C@@H](NC(=O)[C@H](CCCCN)NC(=O)[C@H](Cc1c[nH]c2ccccc12)NC(=O)[C@H](CCCCN)NC(=O)[C@@H]1CCCN1C(=O)[C@@H](N)CCSC)C(C)C)[C@@H](C)CC)[C@@H](C)CC)C(=O)N[C@H](C(=O)N[C@@H](CCCCN)C(=O)N[C@@H](C)C(=O)NCC(=O)N1CCC[C@H]1C(=O)N[C@@H](C)C(=O)N[C@H](C(=O)N[C@@H](C)C(=O)N[C@H](C(=O)N[C@@H](CC(C)C)C(=O)NCC(=O)N[C@@H](CCC(=O)O)C(=O)N[C@@H](C)C(=O)N[C@@H](CCCCN)C(=O)N[C@@H](C)C(=O)N[C@@H](CC(C)C)C(=O)NCC(N)=O)C(C)C)[C@@H](C)CC)C(C)C [Cecropin SB-37] (H-MPKWKVFKKIEKMGRNIRNGIVKAGPAIAVLGEAKALG-NH2) here?
**A.** no adverse reactions were noted

**Q.** What about the “antibody to cecropin SB-37” value (1.76 mg/day regimen) of the same compound?
**A.** None of these mice produced detectable levels of antibody

**Q.** And the “examination of organs and tissues” value (1.76 mg/day regimen, sacrificed 7 days after the last inoculation)?
**A.** no gross pathological changes were present

**Q.** And the “WBC Count” value (Day 1)?
**A.** 13 10^3/ml and 9 10^3/ml

**Q.** What about the “WBC Count” value (Day 3) of the same compound?
**A.** 14 10^3/ml and 9 10^3/ml and 10 10^3/ml

**Q.** And the “WBC Count” value (Day 5)?
**A.** 15 10^3/ml and 19 10^3/ml

**Q.** What about the “WBC Count” value (Day 8) of the same compound?
**A.** 21 10^3/ml

**Q.** What about the “WBC Count” value (Day 11) of the same compound?
**A.** 23 10^3/ml and 20 10^3/ml

**Q.** What about the adverse effects (110 mg/kg per day intramuscularly for 6 days, again ten days later) of the same compound?
**A.** no adverse effects

**Q.** And the “cecropin SB-37 antibodies” value (110 mg/kg regimen)?
**A.** No cecropin SB-37 antibodies were detected

**Q.** And the examination of tissues (110 mg/kg regimen, sacrificed 7 days after the final inoculation)?
**A.** enlarged spleens but were otherwise unremarkable

**Q.** And the adverse reactions (additional 1.76 mg after 30 days)?
**A.** No adverse reactions were noted
